Data taken from patent publication EP3046573B1, “AMYLIN ANALOGUES” (Zealand Pharma A/S, priority 2013, dated 2015).
Like-named read-outs stand apart in the source and are kept apart here. Numbered stars: 1 amine (or outer) side, 2 acyl side, 3 side chain; on linkers, the order of the positions; unused ones are H or OH. Bridge positions count the residues as written; N and C are the ends. Square brackets hold non-standard residues; d marks the D form. Peptide text beside a SMILES is read from it. * marks the point of attachment. C20 diacid = O=C(O)CCCCCCCCCCCCCCCCCCC(=O)*; γGlu = O=C(O)[C@H](CCC(=O)[*:2])N[*:1]; NMeI = CC[C@H](C)[C@H](NC)C(=O)O; Sar = CNCC(=O)O

Experiments:
[1] = target: T1, human calcitonin receptor (hCTR2) (Homo sapiens, UniProt P30988); assay: hCTR2 assay: induction of cAMP (AlphaScreen cAMP Assay kit) in COS7 cells expressing hCTR2; assay type: cell-based; details: cAMP induction in COS7 cells expressing hCTR2; average of a minimum of 3 determinations; read-out: hCTR2 EC50
T1 construct: expressed in transfected cells
T1 sequence (P30988 25-474): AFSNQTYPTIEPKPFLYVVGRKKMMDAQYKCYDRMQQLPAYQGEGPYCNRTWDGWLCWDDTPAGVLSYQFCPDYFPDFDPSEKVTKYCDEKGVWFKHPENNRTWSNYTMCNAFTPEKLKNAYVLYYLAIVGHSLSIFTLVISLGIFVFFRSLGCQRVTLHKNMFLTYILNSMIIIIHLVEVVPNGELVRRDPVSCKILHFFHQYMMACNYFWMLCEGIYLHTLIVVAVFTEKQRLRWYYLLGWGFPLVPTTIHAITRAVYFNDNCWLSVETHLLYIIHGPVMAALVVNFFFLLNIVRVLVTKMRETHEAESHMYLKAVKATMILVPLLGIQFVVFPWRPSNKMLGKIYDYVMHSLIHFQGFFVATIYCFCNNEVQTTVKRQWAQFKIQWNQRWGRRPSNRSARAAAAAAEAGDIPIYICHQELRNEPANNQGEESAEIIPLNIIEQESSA
In short: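 Peptide-induced cAMP in hCTR2-expressing COS7 cells, 15 min at 37° C with phosphodiesterase inhibitor IBMX (100 µM), detected by AlphaScreen; potency from 4PL curves.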

[2] = target: T2, human amylin receptor 3 (hAMYR3) consisting of hCTR2 co-expressed with human Receptor Activity Modifying Protein 3 (hRAMP3) (Homo sapiens, UniProt O60896+P30988); assay: hAMYR3 assay: induction of cAMP (AlphaScreen cAMP Assay kit) in COS7 cells expressing hAMYR3; assay type: cell-based
T2 construct: expressed in transfected cells
T2 sequence (P30988 25-474): T1 sequence (P30988 25-474)
T2 sequence (O60896 24-148 partner): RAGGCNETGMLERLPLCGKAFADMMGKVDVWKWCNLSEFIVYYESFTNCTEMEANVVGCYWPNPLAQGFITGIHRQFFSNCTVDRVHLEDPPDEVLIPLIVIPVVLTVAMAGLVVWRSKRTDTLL
In short: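 cAMP accumulation read by AlphaScreen in lysates of RAMP-naive COS7 cells stably transfected with hCTR2 plus hRAMP3. Cells exposed to peptide dilutions for 15 min, 37° C, with 100 µM IBMX; 4PL fitting gave EC50 and efficacy relative to pramlintide.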

[3] = Solubility assessment (turbidity absorbance at 325 nm); assay type: physicochemical; details: stock 2 mg/ml diluted 1:1, ambient temperature (typically 25°C), n=1; for Solubility, Acetate buffer pH 4: 100 mM acetate buffer pH 4.0; for Solubility, Acetate buffer pH 5: 100 mM acetate buffer pH 5.0; for Solubility, Histidine buffer pH 6: 100 mM histidine buffer pH 6.0; for Solubility, Histidine buffer pH 7: 100 mM histidine buffer pH 7.0; for Solubility, Phosphate buffer pH 6: 100 mM phosphate buffer pH 6.0; for Solubility, Phosphate buffer pH 7: 100 mM phosphate buffer pH 7.0; for Solubility, Phosphate buffer pH 7.5: 100 mM phosphate buffer pH7.5
In short: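 Turbidimetric screen across pH 4.0–7.5 in 100 mM acetate, histidine and phosphate buffers. A 2 mg/ml peptide stock (pH 2.5) was diluted 1:1 into each, then A325 measured at ambient temperature; values ≤ 0.02 AU denoted solubility of 1 mg/ml or more.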

[4] = cAMP induction in COS7 cells expressing hAMYR3, average of a minimum of 3 determinations, read-out: hAMY R3 EC50

EC50 [1] [nM] | Solubility, Acetate buffer pH 4 [3] | Solubility, Acetate buffer pH 5 [3] | Solubility, Histidine buffer pH 6 [3] | Solubility, Histidine buffer pH 7 [3] | Solubility, Phosphate buffer pH 6 [3] | Solubility, Phosphate buffer pH 7 [3] | Solubility, Phosphate buffer pH 7.5 [3] | EC50 [2, 4] [nM] | Compound | EC50 [2] [nM]
0.22 | SS (SS indicates solubility ≥ 1mg/ml) | SS (SS indicates solubility ≥ 1mg/ml) | SS (SS indicates solubility ≥ 1mg/ml) | SS (SS indicates solubility ≥ 1mg/ml) | SS (SS indicates solubility ≥ 1mg/ml) | SS (SS indicates solubility ≥ 1mg/ml) | SS (SS indicates solubility ≥ 1mg/ml) | 0.35 | CC[C@H](C)[C@@H](C(=O)N[C@@H](CC(C)C)C(=O)N[C@@H](CO)C(=O)N[C@@H](CO)C(=O)N[C@H](C(=O)N[C@@H](CCC(=O)O)C(=O)N[C@H](C(=O)NCC(=O)N[C@@H](CO)C(=O)N[C@@H](CCC(=O)O)C(=O)N[C@H](C(=O)N1CCC[C@H]1C(N)=O)[C@@H](C)O)C(C)C)[C@@H](C)O)N(C)C(=O)[C@H](C)NC(=O)CN(C)C(=O)[C@H](Cc1ccccc1)NC(=O)[C@H](CO)NC(=O)[C@H](CO)NC(=O)[C@H](CO)NC(=O)[C@H](CO)NC(=O)[C@H](CCCNC(=N)N)NC(=O)[C@H](Cc1c[nH]cn1)NC(=O)[C@H](CC(C)C)NC(=O)[C@H](Cc1ccccc1)NC(=O)[C@H](CCC(=O)O)NC(=O)[C@H](C)NC(=O)[C@H](CC(C)C)NC(=O)[C@H](CCCNC(=N)N)NC(=O)CNC(=O)[C@@H](NC(=O)[C@H](C)NC(=O)[C@@H]1CSSC[C@H](NC(=O)[C@H](CCCNC(=N)N)NC(=O)CC[C@H](NC(=O)CCCCCCCCCCCCCCCCCCC(=O)O)C(=O)O)C(=O)N[C@@H](CO)C(=O)N[C@@H]([C@@H](C)O)C(=O)N[C@@H](C)C(=O)N[C@@H]([C@@H](C)O)C(=O)N1)[C@@H](C)O [Compound 132, [19CD]-isoGlu-RC()STATC()ATGRLAEFLHRSSSSF-Gly(Me)-A-Ile(Me)-LSSTEVGSETP-NH2] ({C20 diacid-γGlu}-RCSTATCATGRLAEFLHRSSSSF[Sar]A[NMeI]LSSTEVGSETP-NH2; disulfide 2-7) | –
0.3 | SS (SS indicates solubility ≥ 1mg/ml) | SS (SS indicates solubility ≥ 1mg/ml) | SS (SS indicates solubility ≥ 1mg/ml) | SS (SS indicates solubility ≥ 1mg/ml) | SS (SS indicates solubility ≥ 1mg/ml) | SS (SS indicates solubility ≥ 1mg/ml) | SS (SS indicates solubility ≥ 1mg/ml) | 0.36 | CC[C@H](C)[C@@H](C(=O)N[C@@H](CC(C)C)C(=O)N[C@@H](CO)C(=O)N[C@@H](CO)C(=O)N[C@H](C(=O)N[C@@H](CCC(=O)O)C(=O)N[C@H](C(=O)NCC(=O)N[C@@H](CO)C(=O)N[C@@H](CCC(=O)O)C(=O)N[C@H](C(=O)N1CCC[C@H]1C(N)=O)[C@@H](C)O)C(C)C)[C@@H](C)O)N(C)C(=O)[C@H](C)NC(=O)CN(C)C(=O)[C@H](Cc1ccccc1)NC(=O)[C@H](CO)NC(=O)[C@H](CO)NC(=O)[C@H](CO)NC(=O)[C@H](CO)NC(=O)[C@H](CCCNC(=N)N)NC(=O)[C@H](Cc1c[nH]cn1)NC(=O)[C@H](CC(C)C)NC(=O)[C@H](Cc1ccccc1)NC(=O)[C@H](CCC(=O)O)NC(=O)[C@H](C)NC(=O)[C@H](CC(C)C)NC(=O)[C@H](CCCNC(=N)N)NC(=O)[C@H](CO)NC(=O)[C@@H](NC(=O)[C@H](C)NC(=O)[C@@H]1CSSC[C@H](NC(=O)[C@H](CCCNC(=N)N)NC(=O)CC[C@H](NC(=O)CCCCCCCCCCCCCCCCCCC(=O)O)C(=O)O)C(=O)N[C@@H](CO)C(=O)N[C@@H]([C@@H](C)O)C(=O)N[C@@H](C)C(=O)N[C@@H]([C@@H](C)O)C(=O)N1)[C@@H](C)O [Compound 133, [19CD]-isoGlu-RC()STATC()ATSRLAEFLHRSSSSF-Gly(Me)-A-Ile(Me)-LSSTEVGSETP-NH2] ({C20 diacid-γGlu}-RCSTATCATSRLAEFLHRSSSSF[Sar]A[NMeI]LSSTEVGSETP-NH2; disulfide 2-7) | –
0.76 | SS (SS indicates solubility ≥ 1mg/ml) | SS (SS indicates solubility ≥ 1mg/ml) | SS (SS indicates solubility ≥ 1mg/ml) | SS (SS indicates solubility ≥ 1mg/ml) | SS (SS indicates solubility ≥ 1mg/ml) | SS (SS indicates solubility ≥ 1mg/ml) | SS (SS indicates solubility ≥ 1mg/ml) | 0.61 | CC[C@H](C)[C@@H](C(=O)N[C@@H](CC(C)C)C(=O)N[C@@H](CO)C(=O)N[C@@H](CO)C(=O)N[C@H](C(=O)N[C@@H](CCC(=O)O)C(=O)N[C@H](C(=O)NCC(=O)N[C@@H](CO)C(=O)N[C@@H](CCC(=O)O)C(=O)N[C@H](C(=O)N1CCC[C@H]1C(N)=O)[C@@H](C)O)C(C)C)[C@@H](C)O)N(C)C(=O)[C@H](C)NC(=O)CN(C)C(=O)[C@H](Cc1ccccc1)NC(=O)[C@H](CO)NC(=O)[C@H](CO)NC(=O)[C@H](CO)NC(=O)[C@H](CO)NC(=O)[C@H](CCCNC(=N)N)NC(=O)[C@H](Cc1c[nH]cn1)NC(=O)[C@H](CC(C)C)NC(=O)[C@H](Cc1ccccc1)NC(=O)[C@H](CCC(=O)O)NC(=O)[C@H](C)NC(=O)[C@H](CC(C)C)NC(=O)[C@H](CCCNC(=N)N)NC(=O)[C@H](CCC(=O)O)NC(=O)[C@@H](NC(=O)[C@H](C)NC(=O)[C@@H]1CSSC[C@H](NC(=O)[C@H](CCCNC(=N)N)NC(=O)CC[C@H](NC(=O)CCCCCCCCCCCCCCCCCCC(=O)O)C(=O)O)C(=O)N[C@@H](CO)C(=O)N[C@@H]([C@@H](C)O)C(=O)N[C@@H](C)C(=O)N[C@@H]([C@@H](C)O)C(=O)N1)[C@@H](C)O [Compound 135, [19CD]-isoGlu-RC()STATC()ATERLAEFLHRSSSSF-Gly(Me)-A-Ile(Me)-LSSTEVGSETP-NH2] ({C20 diacid-γGlu}-RCSTATCATERLAEFLHRSSSSF[Sar]A[NMeI]LSSTEVGSETP-NH2; disulfide 2-7) | –

Compound | EC50 [1] [nM] | Solubility, Acetate buffer pH 4 [3] | Solubility, Acetate buffer pH 5 [3] | Solubility, Histidine buffer pH 6 [3] | Solubility, Histidine buffer pH 7 [3] | Solubility, Phosphate buffer pH 6 [3] | Solubility, Phosphate buffer pH 7 [3] | Solubility, Phosphate buffer pH 7.5 [3] | EC50 [2, 4] [nM] | EC50 [2] [nM]
CC[C@H](C)[C@@H](C(=O)N[C@@H](CC(C)C)C(=O)N[C@@H](CO)C(=O)N[C@@H](CO)C(=O)N[C@H](C(=O)N[C@@H](CCC(=O)O)C(=O)N[C@H](C(=O)NCC(=O)N[C@@H](CO)C(=O)N[C@@H](CCC(=O)O)C(=O)N[C@H](C(=O)N1CCC[C@H]1C(N)=O)[C@@H](C)O)C(C)C)[C@@H](C)O)N(C)C(=O)[C@H](C)NC(=O)CN(C)C(=O)[C@H](Cc1ccccc1)NC(=O)[C@H](CO)NC(=O)[C@H](CO)NC(=O)[C@H](CO)NC(=O)[C@H](CO)NC(=O)[C@H](CCCNC(=N)N)NC(=O)[C@H](Cc1c[nH]cn1)NC(=O)[C@H](CC(C)C)NC(=O)[C@H](Cc1ccccc1)NC(=O)[C@H](CCC(=O)O)NC(=O)[C@H](C)NC(=O)[C@H](CC(C)C)NC(=O)[C@H](CCCNC(=N)N)NC(=O)CNC(=O)[C@@H](NC(=O)[C@H](C)NC(=O)[C@@H]1CSSC[C@H](NC(=O)[C@H](CCCNC(=N)N)NC(=O)CC[C@H](NC(=O)CCCCCCCCCCCCCCCCCCC(=O)O)C(=O)O)C(=O)NCC(=O)N[C@@H]([C@@H](C)O)C(=O)N[C@@H](C)C(=O)N[C@@H]([C@@H](C)O)C(=O)N1)[C@@H](C)O [Compound 131, [19CD]-isoGlu-RC()GTATC()ATGRLAEFLHRSSSSF-Gly(Me)-A-Ile(Me)-LSSTEVGSETP-NH2] ({C20 diacid-γGlu}-RCGTATCATGRLAEFLHRSSSSF[Sar]A[NMeI]LSSTEVGSETP-NH2; disulfide 2-7) | 0.1 | SS (SS indicates solubility ≥ 1mg/ml) | SS (SS indicates solubility ≥ 1mg/ml) | SS (SS indicates solubility ≥ 1mg/ml) | SS (SS indicates solubility ≥ 1mg/ml) | SS (SS indicates solubility ≥ 1mg/ml) | SS (SS indicates solubility ≥ 1mg/ml) | SS (SS indicates solubility ≥ 1mg/ml) | – | 0.18
